Experimental data from patent US12357711B2, “PSMA binding dual mode radiotracer and therapeutic” (Technische Universität München, priority 2019, dated 2025).

Test system: SCID mice
Test: Preclinical dosimetry from biodistribution in mice, extrapolated to 70-kg Standard Adult (OLINDA/EXM 1.0)
Format: in vivo
Conditions: […] bladder voiding interval
Experimental: 3-5 mice were injected per timepoint with a mean 25.6±3.6 MBq of 18F-rhPSMA-7 and 28.5±4.8 MBq of 18F-rhPSMA-7.3, respectively. Mice, severe combined immunodeficiency (SCID) were used for the experiments.
Mice were sacrificed at the following timepoints: • ^18F-rhPSMA-7: 10, 20, 40, 60, 120 and 180 minutes after administration. • ^18F-rhPSMA-7.3: 10, 60, 120, 180 and 300 minutes after administration.
Urine, blood, heart, lung, spleen, pancreas, liver, stomach (emptied), small intestine (emptied), large intestine (emptied), kidneys, bladder, testis, fat, muscle (partial, femoral), femur, tail and brain. Urine was collected with a pipette in the CO2 gas chamber. In case of missing urination in the chamber the bladder was aspirated with an insulin syringe. Blood was withdrawn instantly after sacrifice with an insulin syringe from the heart. All other tissues and organs were dissected and transferred directly in plastic containers.
The counting rates of measurement samples were automatically corrected for decay. The radioactivity distribution ratios (unit: percentage of the injected dose (% ID) in the measurement samples were determined using the equation below. The sum of the counting rates from all measurement samples obtained from one mouse was designated as the counting rate for administrated radioactivity.
The radioactivity distribution ratio per unit weight of the measurement sample (unit: % ID/g) excluding urine and feces samples was determined by using the equation below. The weight of the measurement sample was determined by subtraction of the empty measurement container from the container including the sample.
For consistency of statistical calculations for each radiotracer the same number of time-points for ^18F-rhPSMA-7 and ^18F-rhPSMA-7.3 was used. Therefore, for ^18F-rhPSMA-7 the 10 min and 20 min time points were combined creating a 15 min endpoint.
The time-integral of activity for the accumulation in the significant source organs (AUCs) were generated both with numerical integration and physical decay according to J Juan et al., Journal of Pharmaceutical Sciences, 1993, 82:762-763.
In brief, to calculate a human dosimetry from the biodistribution in the mice, an extrapolation was necessary to account for the differences between the animals and humans. Normal-organ radiation doses were estimated for the 70-kg Standard Adult anatomic model using time-depending organ activity concentrations (in percent of the injected dose per gram, % ID/g) and total-body activities measured in the biodistribution studies in mice.
Tissue activity concentrations in mice were converted to tissue fractional activities in the 70-kg Standard Adult using the relative fractional organ masses in the Standard Adult and the “standard” 25-gramm mouse. Time-dependent total-body activity was fit to an exponential function and the difference between the injected activity and the total-body activity was assumed to be excreted to the urine because activity concentrations in the liver and GI tracer were low at all time points studied.
Organ residence time was calculated by numerical integration using the trapezoidal rule and the rest-of-body ^18F residence times was calculated as the difference between the total-body residence time and the sum of the organ and urine residence times. The bladder contents residence time was estimated using the dynamic voiding model in the OLINDA/EXM 1.0 dosimetry software. Finally, the Standard Adult mean organ dose equivalents (in mSv/MBq) and effective dose (also in mSv/MBq) were then calculated using OLIN DA/EXM 1.0.
Final calculation of radiation absorbed dose and dosimetry from biodistribution in mice: The tissues or organs in which a significant accumulation of radioactivity occurs (i.e., source organ) were kidney, spleen, lung, liver and heart. With respect to activity accumulation and clearance, a rapid clearance from blood and clearance to urine but relatively slow build-up in kidney was found.

Structure (SMILES): CC(C)(C)[Si](F)(c1ccc(C(=O)NC[C@@H](NC(=O)CC[C@@H](C(=O)O)N2CCN(CC(=O)[O-])CCN(CC(=O)[O-])CCN(CC(=O)[O-])CC2)C(=O)N[C@H](CCCCNC(=O)CCC(=O)NCCC[C@@H](NC(=O)CC[C@H](NC(=O)N[C@@H](CCC(=O)O)C(=O)O)C(=O)O)C(=O)O)C(=O)O)cc1)C(C)(C)C.[Ga+3] [rhPSMA7.3, [^19F][^natGa]D-Dap-S-DOTAGA-rhPSMA7]
- Adrenals ED Cont.: 5.52E−05 mSv/MBq
- Adrenals EDE Cont.: 0.00E000 mSv/MBq
- Adrenals dose Alpha: 0.00E000 mSv/MBq
- Adrenals dose Beta: 3.12E−03 mSv/MBq
- Adrenals dose Photon: 7.93E−03 mSv/MBq
- Adrenals dose Total: 1.10E−02 mSv/MBq
- Brain ED Cont.: 3.59E−05 mSv/MBq
- Brain EDE Cont.: 0.00E000 mSv/MBq
- Brain dose Alpha: 0.00E000 mSv/MBq
- Brain dose Beta: 3.12E−03 mSv/MBq
- Brain dose Photon: 4.07E−03 mSv/MBq
- Brain dose Total: 7.19E−03 mSv/MBq
- Breasts ED Cont.: 3.34E−04 mSv/MBq
- Breasts EDE Cont.: 1.00E−03 mSv/MBq
- Breasts dose Alpha: 0.00E000 mSv/MBq
- Breasts dose Beta: 3.12E−03 mSv/MBq
- Breasts dose Photon: 3.55E−03 mSv/MBq
- Breasts dose Total: 6.67E−03 mSv/MBq
- Gallbladder Wall ED Cont.: 0.00E000 mSv/MBq
- Gallbladder Wall EDE Cont.: 0.00E000 mSv/MBq
- Gallbladder Wall dose Alpha: 0.00E000 mSv/MBq
- Gallbladder Wall dose Beta: 3.12E−03 mSv/MBq
- Gallbladder Wall dose Photon: 7.46E−03 mSv/MBq
- Gallbladder Wall dose Total: 1.06E−02 mSv/MBq
- Heart Wall ED Cont.: 0.00E000 mSv/MBq
- Heart Wall EDE Cont.: 0.00E000 mSv/MBq
- Heart Wall dose Alpha: 0.00E000 mSv/MBq
- Heart Wall dose Beta: 1.32E−03 mSv/MBq
- Heart Wall dose Photon: 5.39E−03 mSv/MBq
- Heart Wall dose Total: 6.71E−03 mSv/MBq
- Kidneys ED Cont.: 3.59E−04 mSv/MBq
- Kidneys EDE Cont.: 4.31E−03 mSv/MBq
- Kidneys dose Alpha: 0.00E000 mSv/MBq
- Kidneys dose Beta: 5.11E−02 mSv/MBq
- Kidneys dose Photon: 2.07E−02 mSv/MBq
- Kidneys dose Total: 7.18E−02 mSv/MBq
- LLI Wall ED Cont.: 1.91E−03 mSv/MBq
- LLI Wall EDE Cont.: 9.53E−04 mSv/MBq
- LLI Wall dose Alpha: 0.00E000 mSv/MBq
- LLI Wall dose Beta: 3.12E−03 mSv/MBq
- LLI Wall dose Photon: 1.28E−02 mSv/MBq
- LLI Wall dose Total: 1.59E−02 mSv/MBq
- Liver ED Cont.: 3.00E−04 mSv/MBq
- Liver EDE Cont.: 0.00E000 mSv/MBq
- Liver dose Alpha: 0.00E000 mSv/MBq
- Liver dose Beta: 9.70E−04 mSv/MBq
- Liver dose Photon: 5.02E−03 mSv/MBq
- Liver dose Total: 5.99E−03 mSv/MBq
- Lungs ED Cont.: 7.93E−04 mSv/MBq
- Lungs EDE Cont.: 7.93E−04 mSv/MBq
- Lungs dose Alpha: 0.00E000 mSv/MBq
- Lungs dose Beta: 1.95E−03 mSv/MBq
- Lungs dose Photon: 4.66E−03 mSv/MBq
- Lungs dose Total: 6.61E−03 mSv/MBq
- Muscle ED Cont.: 4.83E−05 mSv/MBq
- Muscle EDE Cont.: 0.00E000 mSv/MBq
- Muscle dose Alpha: 0.00E000 mSv/MBq
- Muscle dose Beta: 3.12E−03 mSv/MBq
- Muscle dose Photon: 6.55E−03 mSv/MBq
- Muscle dose Total: 9.67E−03 mSv/MBq
- Osteogenic Cells ED Cont.: 1.32E−04 mSv/MBq
- Osteogenic Cells EDE Cont.: 3.97E−04 mSv/MBq
- Osteogenic Cells dose Alpha: 0.00E000 mSv/MBq
- Osteogenic Cells dose Beta: 6.70E−03 mSv/MBq
- Osteogenic Cells dose Photon: 6.52E−03 mSv/MBq
- Osteogenic Cells dose Total: 1.32E−02 mSv/MBq
- Ovaries ED Cont.: 3.14E−03 mSv/MBq
- Ovaries EDE Cont.: 3.92E−03 mSv/MBq
- Ovaries dose Alpha: 0.00E000 mSv/MBq
- Ovaries dose Beta: 3.12E−03 mSv/MBq
- Ovaries dose Photon: 1.26E−02 mSv/MBq
- Ovaries dose Total: 1.57E−02 mSv/MBq
- Pancreas ED Cont.: 5.70E−05 mSv/MBq
- Pancreas EDE Cont.: 0.00E000 mSv/MBq
- Pancreas dose Alpha: 0.00E000 mSv/MBq
- Pancreas dose Beta: 3.12E−03 mSv/MBq
- Pancreas dose Photon: 8.29E−03 mSv/MBq
- Pancreas dose Total: 1.14E−02 mSv/MBq
- Red Marrow ED Cont.: 1.08E−03 mSv/MBq
- Red Marrow EDE Cont.: 1.08E−03 mSv/MBq
- Red Marrow dose Alpha: 0.00E000 mSv/MBq
- Red Marrow dose Beta: 2.22E−03 mSv/MBq
- Red Marrow dose Photon: 6.79E−03 mSv/MBq
- Red Marrow dose Total: 9.01E−03 mSv/MBq
- Skin ED Cont.: 6.95E−05 mSv/MBq
- Skin EDE Cont.: 0.00E000 mSv/MBq
- Skin dose Alpha: 0.00E000 mSv/MBq
- Skin dose Beta: 3.12E−03 mSv/MBq
- Skin dose Photon: 3.83E−03 mSv/MBq
- Skin dose Total: 6.95E−03 mSv/MBq
- Small Intestine ED Cont.: 6.27E−05 mSv/MBq
- Small Intestine EDE Cont.: 0.00E000 mSv/MBq
- Small Intestine dose Alpha: 0.00E000 mSv/MBq
- Small Intestine dose Beta: 3.12E−03 mSv/MBq
- Small Intestine dose Photon: 9.42E−03 mSv/MBq
- Small Intestine dose Total: 1.25E−02 mSv/MBq
- Spleen ED Cont.: 1.34E−04 mSv/MBq
- Spleen EDE Cont.: 1.60E−03 mSv/MBq
- Spleen dose Alpha: 0.00E000 mSv/MBq
- Spleen dose Beta: 1.52E−02 mSv/MBq
- Spleen dose Photon: 1.15E−02 mSv/MBq
- Spleen dose Total: 2.67E−02 mSv/MBq
- Stomach Wall ED Cont.: 1.22E−03 mSv/MBq
- Stomach Wall EDE Cont.: 0.00E000 mSv/MBq
- Stomach Wall dose Alpha: 0.00E000 mSv/MBq
- Stomach Wall dose Beta: 3.12E−03 mSv/MBq
- Stomach Wall dose Photon: 7.02E−03 mSv/MBq
- Stomach Wall dose Total: 1.01E−02 mSv/MBq
- Testes ED Cont.: 0.00E000 mSv/MBq
- Testes EDE Cont.: 0.00E000 mSv/MBq
- Testes dose Alpha: 0.00E000 mSv/MBq
- Testes dose Beta: 3.12E−03 mSv/MBq
- Testes dose Photon: 8.96E−03 mSv/MBq
- Testes dose Total: 1.21E−02 mSv/MBq
- Thymus ED Cont.: 4.10E−05 mSv/MBq
- Thymus EDE Cont.: 0.00E000 mSv/MBq
- Thymus dose Alpha: 0.00E000 mSv/MBq
- Thymus dose Beta: 3.12E−03 mSv/MBq
- Thymus dose Photon: 5.08E−03 mSv/MBq
- Thymus dose Total: 8.20E−03 mSv/MBq
- Thyroid ED Cont.: 4.14E−04 mSv/MBq
- Thyroid EDE Cont.: 2.48E−04 mSv/MBq
- Thyroid dose Alpha: 0.00E000 mSv/MBq
- Thyroid dose Beta: 3.12E−03 mSv/MBq
- Thyroid dose Photon: 5.15E−03 mSv/MBq
- Thyroid dose Total: 8.27E−03 mSv/MBq
- Total Body ED Cont.: 0.00E000 mSv/MBq
- Total Body EDE Cont.: 0.00E000 mSv/MBq
- Total Body dose Alpha: 0.00E000 mSv/MBq
- Total Body dose Beta: 3.52E−03 mSv/MBq
- Total Body dose Photon: 6.33E−03 mSv/MBq
- Total Body dose Total: 9.86E−03 mSv/MBq
- ULI Wall ED Cont.: 5.85E−05 mSv/MBq
- ULI Wall EDE Cont.: 0.00E000 mSv/MBq
- ULI Wall dose Alpha: 0.00E000 mSv/MBq
- ULI Wall dose Beta: 3.12E−03 mSv/MBq
- ULI Wall dose Photon: 8.57E−03 mSv/MBq
- ULI Wall dose Total: 1.17E−02 mSv/MBq
- Urinary Bladder Wall ED Cont.: 1.14E−02 mSv/MBq
- Urinary Bladder Wall EDE Cont.: 1.36E−02 mSv/MBq
- Urinary Bladder Wall dose Alpha: 0.00E000 mSv/MBq
- Urinary Bladder Wall dose Beta: 1.56E−01 mSv/MBq
- Urinary Bladder Wall dose Photon: 7.14E−02 mSv/MBq
- Urinary Bladder Wall dose Total: 2.27E−01 mSv/MBq
- Uterus ED Cont.: 1.18E−04 mSv/MBq
- Uterus EDE Cont.: 1.41E−03 mSv/MBq
- Uterus dose Alpha: 0.00E000 mSv/MBq
- Uterus dose Beta: 3.12E−03 mSv/MBq
- Uterus dose Photon: 2.04E−02 mSv/MBq
- Uterus dose Total: 2.36E−02 mSv/MBq
